This note sets out measurements from patent US20040110802A1, “Antibacterial benzoic acid derivatives” (priority 2002, published 2004).

SMILES strings stand for the structures. In brackets after ≈: the same amount, converted by molar mass.

This assay deals with SAUR 9218. As to the kind of experiment: MIC Test Method, standard agar dilution. The format is cell-based. As to conditions: agar dilution, Mueller Hinton agar, incubated overnight at 35° C.; lowest concentration that inhibits visible growth; read-out: SAUR 9218 MIC. In a few lines:
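MIC (μg/ml) was read as the lowest drug level without visible growth of SAUR 9218 after overnight incubation at 35 °C. Inocula of about 10^4 to 10^5 cells per spot were applied to Mueller Hinton agar containing 2-fold serial compound dilutions.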
On to `CCCC(C)Oc1ccccc1-c1cc(C(=O)Nc2ccc(C#N)cc2C(=O)O)no1` (stereo not drawn), for which the MIC worked out at 0.125 µg/mL (≈ 0.298 µM).
To `CCCCN(CCCC)CCCNS(=O)(=O)c1cc(C(=O)Nc2ccc(Br)cc2C(=O)O)sc1C` belongs over 128 µg/mL; to `N#Cc1ccc(NC(=O)c2noc3ccc(-c4ccccc4)cc23)c(C(=O)O)c1`, 0.125 µg/mL (≈ 0.326 µM).
Consider `Cc1sc(C(=O)Nc2ccc(C#N)cc2C(=O)O)cc1S(=O)(=O)N1CCN(c2cccc(C(F)(F)F)c2)CC1`, for which the minimal inhibitory concentration (MIC) came out at 32 µg/mL (≈ 55.3 µM).
To `N#Cc1ccc(NC(=O)c2cnc(Cl)cn2)c(C(=O)O)c1` belongs 32 µg/mL (≈ 106 µM); to `O=C(Nc1ccc(Br)cc1C(=O)O)c1ncc(-c2ccccc2C(F)(F)F)o1`, 1 µg/mL (≈ 2.2 µM); to `Cl.Cn1c(C(=O)Nc2ccc(C#N)cc2C(=O)O)cc2cccc(OCC(O)CNCC(O)c3ccccc3)c21` (stereo not drawn), 1 µg/mL.
For `Cc1sc(C(=O)Nc2ccc(C#N)cc2C(=O)O)cc1S(=O)(=O)N(Cc1ccccc1)C(C)C` the value was 32 µg/mL (≈ 64.3 µM); for `N#Cc1ccc(NC(=O)c2noc3c2CCc2ccccc2-3)c(C(=O)O)c1`, 0.06 µg/mL (≈ 0.167 µM); for `N#Cc1ccc(NC(=O)c2cc(-c3ccccc3)no2)c(C(=O)O)c1`, 0.5 µg/mL (≈ 1.5 µM).
To `Cc1nc(C)c(S(=O)(=O)Nc2cccc3cc(C(=O)Nc4ccc(C#N)cc4C(=O)O)n(C)c23)s1` belongs 0.5 µg/mL (≈ 0.981 µM); to `O=C(O)c1cc(Br)ccc1NC(=O)c1nc(N2CCOCC2)ncc1Cl`, over 128 µg/mL; to `O=C(Nc1ccc(Br)cc1C(=O)O)c1cnc(SCc2ccccc2)cn1`, 0.125 µg/mL (≈ 0.281 µM).
Turning to `N#Cc1cccc(-c2cnc(C(=O)Nc3ccc(Br)cc3C(=O)O)o2)c1`, the MIC was 4 µg/mL (≈ 9.7 µM).
To `Cc1ccc(CC(=O)Nc2cccc3cc(C(=O)Nc4ccc(C#N)cc4C(=O)O)[nH]c23)cc1` belongs 0.5 µg/mL (≈ 1.11 µM).
As for `COc1ccccc1-c1cnc(C(=O)Nc2ccc(Br)cc2C(=O)O)o1`, the minimum inhibitory concentration (MIC) was 2 µg/mL (≈ 4.79 µM).
Regarding `Cn1c(C(=O)Nc2ccc(C#N)cc2C(=O)O)cc2cccc(NS(=O)(=O)CCCCl)c21`, the MIC was 0.125 µg/mL (≈ 0.263 µM).
Turning to `N#Cc1ccc(NC(=O)c2cccc(Br)n2)c(C(=O)O)c1`, the minimal inhibitory concentration (MIC) was found to be 32 µg/mL (≈ 92.4 µM).
To `N#Cc1ccc(NC(=O)c2ccc(SCCCCCO)nn2)c(C(=O)O)c1` belongs 0.06 µg/mL (≈ 0.155 µM).
For `N#Cc1ccc(NC(=O)c2cc3cccc(NC(=O)c4ccccc4-c4ccccc4)c3[nH]2)c(C(=O)O)c1` the value was 1 µg/mL (≈ 2 µM); for `N#Cc1ccc(NC(=O)c2cnc(-c3ccccc3F)cn2)c(C(=O)O)c1`, 4 µg/mL (≈ 11 µM); for `COC(=O)CC(=O)Nc1cccc2cc(C(=O)Nc3ccc(C#N)cc3C(=O)O)[nH]c12`, 4 µg/mL (≈ 9.52 µM).
To `CC(C)n1c(C(=O)Nc2ccc(C#N)cc2C(=O)O)cc2ccccc21` belongs 2 µg/mL (≈ 5.76 µM); to `CC(=O)OCC(=O)Nc1cccc2cc(C(=O)Nc3ccc(C#N)cc3C(=O)O)[nH]c12`, 2 µg/mL (≈ 4.76 µM); to `CCCCCCCSc1ccc(C(=O)Nc2ccc(Br)cc2C(=O)O)nn1`, 0.06 µg/mL (≈ 0.133 µM).
On to `CS(=O)(=O)c1ccccc1C(=O)Nc1cccc2cc(C(=O)Nc3ccc(C#N)cc3C(=O)O)[nH]c12`, for which the minimum inhibitory concentration (MIC) is 4 µg/mL (≈ 7.96 µM).
Turning to `Cc1nn(-c2ccccc2)nc1C(=O)Nc1ccc(C#N)cc1C(=O)O`, the minimum inhibitory concentration (MIC) turned out to be 4 µg/mL (≈ 11.5 µM).
For `CCS(=O)(=O)Nc1cccc2cc(C(=O)Nc3ccc(C#N)cc3C(=O)O)n(C)c12` the value was 0.5 µg/mL (≈ 1.17 µM).
To `Cc1noc(C)c1-c1cncc(C(=O)Nc2ccc(C#N)cc2C(=O)O)c1` belongs 16 µg/mL (≈ 44.2 µM); to `O=C(Nc1ccc(Cl)cc1C(=O)O)c1cc(-c2ccccc2Cl)on1`, 0.5 µg/mL (≈ 1.33 µM).
As for `COC(Cc1cnc(C(=O)Nc2ccc(Br)cc2C(=O)O)cn1)[C@H](O)CO` (stereo partly drawn), the MIC was over 128 µg/mL.
To `N#Cc1ccc(NC(=O)c2cc(-c3ccccc3C(F)(F)F)on2)c(C(=O)O)c1` belongs 0.25 µg/mL (≈ 0.623 µM).
For `N#Cc1ccc(NC(=O)c2cc3ccccc3n2CCCc2ccccc2)c(C(=O)O)c1` the value was 4 µg/mL (≈ 9.45 µM); for `Cc1sc(C(=O)Nc2ccc(C#N)cc2C(=O)O)cc1S(=O)(=O)N1CCCC1`, 16 µg/mL (≈ 38.1 µM); for `N#Cc1ccc(NC(=O)c2cc(-c3ccccc3OC3CCOC3)on2)c(C(=O)O)c1` (stereo not drawn), 0.25 µg/mL (≈ 0.596 µM).
To `O=C(O)c1cc(Br)ccc1NC(=O)c1cc(-c2ccccc2)nc2ccccc12` belongs 64 µg/mL (≈ 143 µM); to `O=C(O)c1cc(Br)ccc1NC(=O)c1noc2ccc(S(=O)(=O)N3CCOCC3)cc12`, 0.5 µg/mL (≈ 0.98 µM); to `CCCN(CCC)S(=O)(=O)c1ccc(C(=O)Nc2ccc(Br)cc2C(=O)O)cn1`, 8 µg/mL (≈ 16.5 µM).
In the case of `N#Cc1ccc(NC(=O)c2cc(CNCc3ccncc3)on2)c(C(=O)O)c1.O=C(O)C(F)(F)F`, the MIC was determined as 8 µg/mL.
To `C=CCn1c(C(=O)Nc2ccc(Br)cc2C(=O)O)cc2ccccc21` belongs 8 µg/mL (≈ 20 µM).
For the compound `Cc1sc(C(=O)Nc2ccc(C#N)cc2C(=O)O)cc1S(=O)(=O)N1CCOCC1`, the MIC is 32 µg/mL (≈ 73.5 µM).
Regarding `CCCCCCSc1ccc(C(=O)Nc2ccc(Br)cc2C(=O)O)nn1`, the MIC worked out at 0.125 µg/mL (≈ 0.285 µM).
`N#Cc1ccc(NC(=O)c2noc3cc(N)ccc23)c(C(=O)O)c1`: the MIC amounted to 0.5 µg/mL (≈ 1.55 µM).
For `CCCCSc1cnc(C(=O)Nc2ccc(Br)cc2C(=O)O)cn1` the value was 1 µg/mL (≈ 2.44 µM); for `N#Cc1ccc(NC(=O)c2ncc(-c3cccc(Cl)c3)s2)c(C(=O)O)c1`, 1 µg/mL (≈ 2.61 µM); for `COCC(=O)Nc1ccc2cc(C(=O)Nc3ccc(C#N)cc3C(=O)O)n(C)c2c1`, 2 µg/mL (≈ 4.92 µM).
For `N#Cc1ccc(NC(=O)c2ccc(SC3CCCC3)nc2)c(C(=O)O)c1` the value was 0.5 µg/mL (≈ 1.36 µM); for `Cn1c(C(=O)Nc2ccc(C#N)cc2C(=O)O)cc2c(Br)cc(Br)c(NC(=O)Cc3ccccc3)c21`, 2 µg/mL (≈ 3.28 µM); for `N#Cc1ccc(NC(=O)c2cc3cccc(NC(=O)Cc4ccc(C(F)(F)F)cc4)c3[nH]2)c(C(=O)O)c1`, 0.5 µg/mL (≈ 0.987 µM).
For `N#Cc1ccc(NC(=O)COc2ccccc2-c2cc(C(=O)Nc3ccc(C#N)cc3C(=O)O)no2)c(C(=O)O)c1` the value was 128 µg/mL (≈ 232 µM); for `O=C(Nc1ccc(Br)cc1C(=O)O)c1ccoc1`, over 128 µg/mL; for `Cc1coc2cnc(C(=O)Nc3ccc(C#N)cc3C(=O)O)cc12`, 16 µg/mL (≈ 49.8 µM).
As to `N#Cc1ccc(NC(=O)c2cnc(SCc3ccccc3)s2)c(C(=O)O)c1`, the MIC was 1 µg/mL (≈ 2.53 µM).
For `N#Cc1ccc(NC(=O)c2ccc(SCc3ccncc3)nn2)c(C(=O)O)c1` the value was 0.25 µg/mL (≈ 0.639 µM).
To `Cn1c(C(=O)Nc2ccc(C#N)cc2C(=O)O)cc2cccc(OCC3CCCCC3)c21` belongs 0.25 µg/mL (≈ 0.579 µM); to `N#Cc1ccc(NC(=O)c2noc3ccc(Br)cc23)c(C(=O)O)c1`, 0.125 µg/mL (≈ 0.324 µM).
For `N#Cc1ccc(NC(=O)c2ccc3ccccc3n2)c(C(=O)O)c1` the value was 8 µg/mL (≈ 25.2 µM).
For the compound `Cc1sc(C(=O)Nc2ccc(Br)cc2C(=O)O)cc1S(=O)(=O)Nc1ccc(Cl)cc1`, the minimum inhibitory concentration (MIC) was 4 µg/mL (≈ 7.55 µM).
Consider `N#Cc1ccc(NC(=O)c2ccc(SCC(=O)c3ccc4c(c3)C(=O)NCO4)nn2)c(C(=O)O)c1`, for which the minimum inhibitory concentration (MIC) came out at 0.5 µg/mL (≈ 1.02 µM).
For `CNC(=O)Nc1ccc2cc(C(=O)Nc3ccc(C#N)cc3C(=O)O)n(C)c2c1` the value was 2 µg/mL (≈ 5.11 µM).
With `Cn1c(C(=O)Nc2ccc(C#N)cc2C(=O)O)cc2c(-c3ccccc3C(F)(F)F)cc(-c3ccccc3C(F)(F)F)c(NC(=O)Cc3ccccc3)c21`, the MIC amounted to 8 µg/mL (≈ 10.8 µM).
For `N#Cc1ccc(NC(=O)c2noc3cc(Br)ccc23)c(C(=O)O)c1` the value was 0.5 µg/mL (≈ 1.29 µM); for `CCCCCCSc1ccc(C(=O)Nc2ccc(Br)cc2C(=O)O)cn1`, 0.125 µg/mL (≈ 0.286 µM); for `O=C(Nc1ccc(Br)cc1C(=O)O)c1cc(Cl)nc(Cl)c1`, 32 µg/mL (≈ 82 µM).
To `O=C(Nc1ccc(Br)cc1-c1noc(=O)[nH]1)c1cc(-c2ccccc2)on1` belongs 1 µg/mL (≈ 2.34 µM).
To `O=C(Nc1ccc(I)cc1C(=O)O)c1cnc(Cl)cn1` belongs 128 µg/mL (≈ 317 µM); to `N#Cc1ccc(NC(=O)c2cc3cccc(NC(=O)CC4CCCC4)c3[nH]2)c(C(=O)O)c1`, 1 µg/mL (≈ 2.32 µM); to `N#Cc1ccc(NC(=O)c2cc3cccc(N)c3[nH]2)c(C(=O)O)c1`, 1 µg/mL (≈ 3.12 µM).
Consider `Cn1cnc(S(=O)(=O)Nc2cccc3cc(C(=O)Nc4ccc(C#N)cc4C(=O)O)n(C)c23)c1`, for which the MIC stood at 0.5 µg/mL (≈ 1.04 µM).
Turning to `COc1ccc(-c2ccc3cc(C(=O)Nc4ccc(C#N)cc4C(=O)O)n(C)c3c2)c(OC)c1OC`, the minimum inhibitory concentration (MIC) worked out at 0.25 µg/mL (≈ 0.515 µM).
To `CCCC(=O)Nc1cccc2cc(C(=O)Nc3ccc(C#N)cc3C(=O)O)[nH]c12` belongs 2 µg/mL (≈ 5.12 µM); to `Cc1cc(CC(=O)Nc2cccc3cc(C(=O)Nc4ccc(C#N)cc4C(=O)O)[nH]c23)on1`, 2 µg/mL (≈ 4.51 µM).
Take `CC(C)NC(=O)Nc1ccc2cc(C(=O)Nc3ccc(C#N)cc3C(=O)O)n(C)c2c1`: the MIC amounted to 0.5 µg/mL (≈ 1.19 µM).
For `COC(=O)CSc1ccc(C(=O)Nc2ccc(C#N)cc2C(=O)O)cn1` the value was 0.5 µg/mL (≈ 1.35 µM); for `O=C(Nc1ccc(Br)cc1C(=O)O)c1cnc(Cl)c(Cl)c1`, 4 µg/mL (≈ 10.3 µM); for `N#Cc1ccc(NC(=O)c2cc3cccc(NC(=O)C4CC4c4ccccc4)c3[nH]2)c(C(=O)O)c1` (stereo not drawn), 0.5 µg/mL (≈ 1.08 µM).
To `Cn1c(C(=O)Nc2ccc(C#N)cc2C(=O)O)cc2cccc(OCc3cccnc3)c21` belongs 0.125 µg/mL (≈ 0.293 µM); to `O=C(O)c1cc(Br)ccc1NC(=O)c1cccc2c1CCN(Cc1ccccc1)S2(=O)=O`, 8 µg/mL (≈ 15.5 µM); to `N#Cc1ccc(NC(=O)c2cc(-c3ccc(C(F)(F)F)cc3)on2)c(C(=O)O)c1`, 1 µg/mL (≈ 2.49 µM).
To `N#Cc1ccc(NC(=O)c2ccccn2)c(C(=O)O)c1` belongs 32 µg/mL (≈ 120 µM).
For the compound `CCCCCn1c(C(=O)Nc2ccc(Br)cc2C(=O)O)cc2ccccc21`, the minimum inhibitory concentration (MIC) turned out to be 2 µg/mL (≈ 4.66 µM).
To `N#Cc1ccc(NC(=O)c2cc(-c3ccc4c(c3)OCO4)on2)c(C(=O)O)c1` belongs 0.125 µg/mL (≈ 0.331 µM).
To `CCCCCCSc1ccc(C(=O)Nc2ccc(C#N)cc2C(=O)O)nn1` belongs 0.03 µg/mL (≈ 0.078 µM); to `N#Cc1ccc(NC(=O)c2csc(-c3cccnc3)n2)c(C(=O)O)c1`, over 128 µg/mL.
Consider `Cc1cc(C(=O)Nc2ccc(C#N)cc2C(=O)O)c(C)o1`, for which the MIC is over 128 µg/mL.
For `Cc1ccccc1-c1cccc2cc(C(=O)Nc3ccc(C#N)cc3C(=O)O)n(C)c12` the value was 0.125 µg/mL (≈ 0.305 µM); for `Cc1cc(NS(=O)(=O)c2ccc(-c3cc(C(=O)Nc4ccc(Br)cc4C(=O)O)no3)cc2)no1`, 32 µg/mL (≈ 58.5 µM).

A word on the MIC: it is the lowest concentration that inhibits growth of the organism.
